The values below come from ChEMBL document CHEMBL5505999, “Discovery of anti-inflammatory agents from 3, 4-dihydronaphthalene-1(2H)-one derivatives by inhibiting NLRP3 inflammasome activation” (Eur J Med Chem, 2024).

Calls of active or inactive are those of the source. The calls are words filed in the database; no cut-off is given here.

In series [1] the target is NACHT, LRR and PYD domains-containing protein 3 (Mus musculus) (UniProt Q8R4B8). Description: Inhibition of NLRP3 inflammasome activation in LPS-induced mouse RAW264.7 cells assessed as reduction in ROS production by measuring intracellular ROS level at 1.5 uM incubated for 24 hrs by DCFH-DA staining based flow cytometric analysis (reference value: 42.0%). The series is classed as cell-based. Also noted: scale not given: the % may be the effect or the level left. (In general: In flow cytometry, cells or beads pass a laser one at a time.)

A short description of series [2]: Induction of apoptosis in mouse RAW264.7 cells assessed as viable cells at 3.0 uM by Annexin V-FITC/PI staining based flow cytometric analysis (reference value: 96.4%). The series is classed as toxicity, cell-based. The conditions noted are these: read-out: Activity.
In series [3] the target is NACHT, LRR and PYD domains-containing protein 3 (Mus musculus) (UniProt Q8R4B8). Put plainly: Inhibition of NLRP3 inflammasome activation in LPS-induced mouse RAW264.7 cells assessed as reduction in NO production incubated for 24 hrs by Griess reagent based assay. The series is classed as cell-based. As to conditions: dose 1.5-6 µM. In general terms: Nitrite, measured by Griess reagent, commonly stands in for NO production.

For series [4] the target is unchanged. Put plainly: Inhibition of NLRP3 inflammasome activation in LPS-induced mouse RAW264.7 cells assessed as reduction in ROS production by measuring intracellular ROS level at 6.0 uM incubated for 24 hrs by DCFH-DA staining based flow cytometric analysis (reference value: 42.0%). The series is classed as cell-based. Also noted: scale not given: the % may be the effect or the level left.

For series [5], the system named is RAW264.7. Description: Anti-inflammatory activity in mouse RAW264.7 cells assessed as inhibition of LPS-induced TNF-alpha production pretreated with compound for 2 hrs followed by LPS addition and measured after 22 hrs by ELISA. It counts as functional, cell-based. The conditions noted are these: dose 1.5-6 µM, time 24.0 hrs. On the technique in general: An ELISA detects its analyte on a solid surface through an enzyme-linked reagent.

The subject of series [6] is RAW264.7. Description: Anti-inflammatory activity in mouse RAW264.7 cells assessed as inhibition of LPS-induced IL-6 production pretreated with compound for 2 hrs followed by LPS addition and measured after 22 hrs by ELISA. It counts as functional, cell-based. The conditions noted are these: dose 1.5-6 µM, time 24.0 hrs.
The subject of series [7] is RAW264.7. Put plainly: Anti-inflammatory activity in mouse RAW264.7 cells assessed as inhibition of LPS-induced TNF-alpha production at 2.5 uM pretreated with compound for 2 hrs followed by LPS addition and measured after 22 hrs by ELISA relative to control. The series is classed as functional. As to conditions: time 24 hrs.
Series [8] has as its system RAW264.7. Description: Anti-inflammatory activity in mouse RAW264.7 cells assessed as inhibition of LPS-induced IL-1beta production pretreated with compound for 2 hrs followed by LPS addition for 22 hrs and measured 30 mins after LPS addition by ELISA. The series is classed as functional, cell-based. The conditions noted are these: dose 1.5-6 µM, time 24.5 hrs.
Series [9] concerns the target Transcription factor p65 (Mus musculus) (UniProt Q04207). Description: Inhibition of NF-kappaB p65 nuclear translocation in LPS-induced mouse RAW264.7 cells assessed as increase in p65 subunits in cytoplasm at 6.0 uM preincubated with compound for 2 hrs followed by LPS addition and measured after 2 hrs by DAPI staining based Zeiss laser confocal microscopic analysis. It counts as cell-based. As to conditions: time 4.0 hrs.

The nature of series [10]: Induction of apoptosis in mouse RAW264.7 cells assessed as viable cells at 1.5 uM by Annexin V-FITC/PI staining based flow cytometric analysis (reference value: 96.4%). It counts as toxicity, cell-based. The conditions noted are these: read-out: Activity.
Series [11] concerns RAW264.7. Description: Induction of apoptosis in mouse RAW264.7 cells assessed as apoptotic cells at 3.0 uM by Annexin V-FITC/PI staining based flow cytometric analysis (reference value: 1.9%). As to conditions: raw264.7, 3 µM. The series is classed as toxicity, cell-based.
The test system of series [12] is RAW264.7. Put plainly: Inhibition of NF-kappaB signaling pathway in mouse RAW264.7 cells assessed as reduction in IkappaBalpha phosphorylation preincubated with compound for 2 hrs followed by LPS addition and measured after 22 hrs by Western blot analysis. It counts as cell-based. The conditions noted are these: dose 1.5-6 µM, time 24.0 hrs.
A short description of series [13]: Cytotoxicity against mouse RAW264.7 cells assessed as survival rate at 2.5 uM incubated overnight by CCK-8 assay relative to control. It counts as toxicity, cell-based. The conditions noted are these: read-out: Survival.
Series [14] addresses NACHT, LRR and PYD domains-containing protein 3 (Mus musculus) (UniProt Q8R4B8). Description: Inhibition of NLRP3 inflammasome activation in mouse RAW264.7 cells assessed as reduction in ASC expression at 1.5 to 6.0 uM preincubated with compound for 2 hrs followed by LPS addition and measured after 30 mins by Western blot analysis. The conditions noted are these: dose 1.5-6 µM, time 2.5 hrs. It counts as cell-based.

The subject of series [15] is RAW264.7. Put plainly: Induction of apoptosis in mouse RAW264.7 cells assessed as apoptotic cells at 6.0 uM by Annexin V-FITC/PI staining based flow cytometric analysis (reference value: 1.9%). It counts as toxicity, cell-based. The conditions noted are these: raw264.7, 6 µM.
For series [16], the system named is RAW264.7. Put plainly: Inhibition of NF-kappaB signaling pathway in mouse RAW264.7 cells assessed as reduction in p65 phosphorylation preincubated with compound for 2 hrs followed by LPS addition and measured after 22 hrs by Western blot analysis. The series is classed as cell-based. The conditions noted are these: dose 1.5-6 µM, time 24.0 hrs.
The target of series [17] is NACHT, LRR and PYD domains-containing protein 3 (Mus musculus) (UniProt Q8R4B8). Description: Inhibition of NLRP3 inflammasome activation in LPS-induced mouse RAW264.7 cells assessed as reduction in ROS production by measuring intracellular ROS level at 3.0 uM incubated for 24 hrs by DCFH-DA staining based flow cytometric analysis (reference value: 42.0%). It counts as cell-based. Also noted: scale not given: the % may be the effect or the level left.

Series [18] deals with RAW264.7. Description: Induction of apoptosis in mouse RAW264.7 cells assessed as apoptotic cells at 1.5 uM by Annexin V-FITC/PI staining based flow cytometric analysis (reference value: 1.9%). The series is classed as toxicity, cell-based. The conditions noted are these: raw264.7, 1.5 µM.
Series [19] concerns the target NACHT, LRR and PYD domains-containing protein 3 (Mus musculus) (UniProt Q8R4B8). Description: Inhibition of NLRP3 inflammasome activation in mouse RAW264.7 cells assessed as reduction in NLRP3 expression at 1.5 to 6.0 uM preincubated with compound for 2 hrs followed by LPS addition and measured after 30 mins by Western blot analysis. It counts as cell-based. The conditions noted are these: dose 1.5-6 µM, time 2.5 hrs.

Series [20] relates to RAW264.7. Put plainly: Anti-inflammatory activity in mouse RAW264.7 cells assessed as inhibition of LPS-induced IL-18 production pretreated with compound for 2 hrs followed by LPS addition for 22 hrs and measured 30 mins after LPS addition by ELISA. It counts as functional, cell-based. As to conditions: dose 1.5-6 µM, time 24.5 hrs.
Series [21] can be described thus: Induction of apoptosis in mouse RAW264.7 cells assessed as viable cells at 6.0 uM by Annexin V-FITC/PI staining based flow cytometric analysis (reference value: 96.4%). It counts as toxicity, cell-based. The conditions noted are these: read-out: Activity.
For series [22], the system named is RAW264.7. Put plainly: Anti-inflammatory activity in mouse RAW264.7 cells assessed as inhibition of LPS-induced IL-6 production at 2.5 uM pretreated with compound for 2 hrs followed by LPS addition and measured after 22 hrs by ELISA relative to control. The series is classed as functional. As to conditions: time 24 hrs.

NACHT, LRR and PYD domains-containing protein 3 (Mus musculus), sequence (Q8R4B8 whole entry, the tested form may be a part): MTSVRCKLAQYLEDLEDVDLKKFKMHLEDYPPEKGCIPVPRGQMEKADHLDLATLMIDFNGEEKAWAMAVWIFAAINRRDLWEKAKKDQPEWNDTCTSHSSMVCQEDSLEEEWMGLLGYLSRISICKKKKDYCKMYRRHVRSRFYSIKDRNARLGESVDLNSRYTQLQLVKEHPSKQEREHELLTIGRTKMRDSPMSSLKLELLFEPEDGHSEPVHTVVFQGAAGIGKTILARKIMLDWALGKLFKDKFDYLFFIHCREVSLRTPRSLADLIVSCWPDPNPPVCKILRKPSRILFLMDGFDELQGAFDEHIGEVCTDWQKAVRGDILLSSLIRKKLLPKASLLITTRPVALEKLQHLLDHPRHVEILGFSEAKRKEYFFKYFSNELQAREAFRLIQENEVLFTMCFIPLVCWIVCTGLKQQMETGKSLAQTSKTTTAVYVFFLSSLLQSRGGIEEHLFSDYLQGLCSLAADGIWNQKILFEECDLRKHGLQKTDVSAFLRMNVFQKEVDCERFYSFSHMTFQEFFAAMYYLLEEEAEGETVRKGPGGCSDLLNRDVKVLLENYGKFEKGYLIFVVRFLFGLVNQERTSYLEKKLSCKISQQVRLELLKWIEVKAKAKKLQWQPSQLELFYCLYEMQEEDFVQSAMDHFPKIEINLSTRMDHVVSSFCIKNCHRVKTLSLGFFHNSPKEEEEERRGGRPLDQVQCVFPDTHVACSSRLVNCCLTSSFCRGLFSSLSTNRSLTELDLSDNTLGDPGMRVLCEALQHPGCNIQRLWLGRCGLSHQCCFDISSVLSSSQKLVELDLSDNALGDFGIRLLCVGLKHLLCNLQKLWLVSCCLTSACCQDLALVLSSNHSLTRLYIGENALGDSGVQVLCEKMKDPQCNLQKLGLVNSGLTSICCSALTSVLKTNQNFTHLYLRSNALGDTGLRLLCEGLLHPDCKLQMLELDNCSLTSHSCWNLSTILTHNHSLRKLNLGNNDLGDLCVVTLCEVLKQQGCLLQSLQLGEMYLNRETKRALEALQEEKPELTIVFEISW
Transcription factor p65 (Mus musculus), sequence (Q04207 whole entry): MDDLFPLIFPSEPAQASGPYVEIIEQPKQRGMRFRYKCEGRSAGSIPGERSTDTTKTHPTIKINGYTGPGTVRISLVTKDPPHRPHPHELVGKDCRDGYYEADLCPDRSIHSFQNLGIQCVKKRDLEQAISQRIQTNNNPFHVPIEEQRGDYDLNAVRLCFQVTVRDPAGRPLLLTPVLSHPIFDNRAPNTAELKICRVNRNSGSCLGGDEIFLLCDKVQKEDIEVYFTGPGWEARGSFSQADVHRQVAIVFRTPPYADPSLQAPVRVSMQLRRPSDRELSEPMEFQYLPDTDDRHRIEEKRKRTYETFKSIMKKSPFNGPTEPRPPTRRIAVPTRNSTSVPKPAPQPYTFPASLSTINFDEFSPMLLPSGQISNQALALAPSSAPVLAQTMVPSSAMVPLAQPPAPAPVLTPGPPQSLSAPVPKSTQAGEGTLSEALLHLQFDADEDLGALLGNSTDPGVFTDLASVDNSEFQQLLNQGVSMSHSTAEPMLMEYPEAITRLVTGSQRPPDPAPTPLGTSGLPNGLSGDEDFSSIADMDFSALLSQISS

On to `CN1CCN(c2ccc(/C=C3\CCc4ccc(Br)cc4C3=O)nc2)CC1`, for which the Activity in series [1] is 36.4%; in series [4] it was 19.9%; in the series on RAW264.7 [5], “Dose-Dependent Effect”; in the series with RAW264.7 [6], “Dose-Dependent Effect”; with RAW264.7 [8], “Dose-Dependent Effect”; in the series with RAW264.7 [11], 5.6%. For the same molecule, the Activity was 6.8% in the series with RAW264.7 [15], 31.8% in [17], 3.8% with RAW264.7 [18] and “Dose-Dependent Effect” in the series with RAW264.7 [20]. Moreover, in [2], the viability at 3 µM was found to be 92.8%. Moreover, the inhibition result (in series [3]; with RAW264.7 [12]; in the series with RAW264.7 [16]) was “Dose-Dependent Effect” in each case. Besides, the figures for the inhibition at 2.5 µM in the series with RAW264.7 [7] and in the series with RAW264.7 [22] were 81.4% and 69.2%, respectively. The inhibition entry in [9], in [14] and in series [19] was “Active” throughout. The viability at 1.5 µM in series [10] was determined as 94.4%. Further, in series [13], the viability at 2.5 µM stood at 108%. In addition, the viability at 6 µM in series [21] was 91.6%.
